In the assay the target is T1, PAR-1 receptor (Cricetulus griseus, UniProt A0A8C2QJ57).
T1 construct: Chinese hamster ovarian (CHO) cells constituently express PAR-1 receptor; endogenous in cells; host or cells: CHO cells
T1 sequence (A0A8C2QJ57 22-428): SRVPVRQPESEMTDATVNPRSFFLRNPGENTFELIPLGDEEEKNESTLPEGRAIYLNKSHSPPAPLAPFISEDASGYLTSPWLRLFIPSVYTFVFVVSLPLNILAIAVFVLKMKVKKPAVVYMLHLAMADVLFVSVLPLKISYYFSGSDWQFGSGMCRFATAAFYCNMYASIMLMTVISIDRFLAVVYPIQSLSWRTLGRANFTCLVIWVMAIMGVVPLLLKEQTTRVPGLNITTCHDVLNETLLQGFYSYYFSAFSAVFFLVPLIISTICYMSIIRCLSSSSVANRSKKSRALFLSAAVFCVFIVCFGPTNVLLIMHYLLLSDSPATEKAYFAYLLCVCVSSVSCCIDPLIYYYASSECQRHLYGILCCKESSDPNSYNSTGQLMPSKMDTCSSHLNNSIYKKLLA
Put plainly: Calcium release (FLIPR) antagonism of SFLLR-activated PAR-1 in CHO cells. The assay is classed as cell-based, Chinese hamster. Particulars: SFLLR agonist, Schild method from EC50 shifts at three concentrations, read-out: pA2 (converted). How it is done: In a variety of cell types, activation of PAR-1 receptors by the SFLLR peptide (a selective PAR-1 agonist) triggers an intracellular signal cascade leading to the release of calcium by the endoplasmic reticulum. Chinese hamster ovarian (CHO) cells constituently express PAR-1 receptor. In this cell line, the release of calcium consecutive to receptor activation by SFLLR is measured by a fluorometry technique (fluorometric imaging plate reader, or FLIPR) using a selective probe for calcium (Fluo-3AM). The emission of fluorescence is pharmacologically proportional to the efficiency of the PAR-1 agonist and to its concentration.
Culture medium: Ham's F-12 (Ham, R. G., Proc. Nat. Acad. Sci. 1965, 53: 288) supplemented with 10% fetal calf serum and […].
Fluorescent probe: Fluo-3AM (4 μM; Teflabs, Austin, Tex., USA)
Agonist: SFLLR-NH2 (Serine, phenylalanine, leucine, leucine, arginine).
Methods: CHO cells are inoculated in 96-well plates (60,000 cells per well) in the presence of 200 μl of culture medium for 24 hours. The cells are incubated with the calcium fluorescent probe for 1 hour at 37° C. The cells are then washed 10 minutes before the signal is measured. PAR-1 antagonist is then injected (0.01 μM to 10 μM). The plates are placed in the FLIPR (Molecular Devices, UK) to measure calcium fluorescence at two wavelengths (488 nm and 540 nm: Sullivan et al., Calcium Signaling Protocols 1999, 125-136). Measurements are taken for 5 min before the antagonist is added and for 10 min following its administration. Maximum fluorescence minus baseline fluorescence is measured in 4 different wells. The test is carried out in duplicate. Under these conditions, the derivatives of the present invention were identified as PAR-1 receptor antagonists (antagonism >60% of the calcium signal at 10 μM). The dose-response curves (0.01 μM to 32 μM) obtained with the SFLLR agonist allowed determination of the effective concentration inducing 50% of the maximum effect (EC50). The strengths (pA2) of some of the PAR-1 antagonists described in the present invention were calculated using the method of Arunlakshana and Schild (Brit. J. Pharmacol., 1959, 14: 48-58) from the EC50 shifts observed at three concentrations.
`O=C(/C=C/C=C/c1ccccc1[N+](=O)[O-])N1CCN(c2ccccc2)CC1` [Example 16, 5-(2-Nitro-phenyl)-1-(4-phenyl-piperazin-1-yl)-penta-2,4-dien-1-one]: the Kb was 58.9 nM.

For `O=C(C=CC=Cc1ccccc1[N+](=O)[O-])N1CCN(c2ccccn2)CC1` [Example 21, 5-(2-Nitro-phenyl)-1-(4-pyridin-2-yl-piperazin-1-yl)-penta-2,4-dien-1-one], the Kb was 77.6 nM.

With `N#Cc1ccccc1/C=C/C=C/C(=O)N1CCN(C2CCCC2)CC1` [Example 2, 2-[5-(4-Cyclopentyl-piperazin-1-yl)-5-oxo-penta-1,3-dienyl]-benzonitrile], the Kb is 234 nM.

Turning to `N#Cc1ccccc1/C=C/C=C/C(=O)N1CCN(c2ccccn2)CC1` [Example 1, 2-[5-Oxo-5-(4-pyridin-2-yl-piperazin-1-yl)-penta-1,3-dienyl]-benzonitrile], the Kb is 316 nM.

As to `O=C(/C=C/C=C/c1ccccc1[N+](=O)[O-])N1CCN(C2CCCC2)CC1` [Example 18, 1-(4-Cyclopentyl-piperazin-1-yl)-5-(2-nitro-phenyl)-penta-2,4-dien-1-one], the Kb is 69.2 nM.

`O=C(/C=C/C=C/c1ccccc1Cl)N1CCN(C2CCCC2)CC1` [Example 9, 5-(2-Chloro-phenyl)-1-(4-cyclopentyl-piperazin-1-yl)-penta-2,4-dien-1-one]: the Kb was 229 nM.

The values are drawn from patent US8022064B2, “Phenylpentadienoyl derivatives and their use as PAR 1 antagonists” (Pierre Fabre Medicament, priority 2006, dated 2011).
